In patent US20160130278A1 (TAISHO PHARMACEUTICAL CO., LTD, priority 2013, published 2016):

These molecules were tested against T1, human type 1 glycine transporter (GlyT1) (Homo sapiens, UniProt P48067) (assay: Glycine uptake inhibition experiment ([3H]glycine uptake)). Details: GlyT1.
T1 construct: T98G cells (glioma cells) expressing human type 1 glycine transporter (GlyT1) were used
T1 sequence (P48067 1-706): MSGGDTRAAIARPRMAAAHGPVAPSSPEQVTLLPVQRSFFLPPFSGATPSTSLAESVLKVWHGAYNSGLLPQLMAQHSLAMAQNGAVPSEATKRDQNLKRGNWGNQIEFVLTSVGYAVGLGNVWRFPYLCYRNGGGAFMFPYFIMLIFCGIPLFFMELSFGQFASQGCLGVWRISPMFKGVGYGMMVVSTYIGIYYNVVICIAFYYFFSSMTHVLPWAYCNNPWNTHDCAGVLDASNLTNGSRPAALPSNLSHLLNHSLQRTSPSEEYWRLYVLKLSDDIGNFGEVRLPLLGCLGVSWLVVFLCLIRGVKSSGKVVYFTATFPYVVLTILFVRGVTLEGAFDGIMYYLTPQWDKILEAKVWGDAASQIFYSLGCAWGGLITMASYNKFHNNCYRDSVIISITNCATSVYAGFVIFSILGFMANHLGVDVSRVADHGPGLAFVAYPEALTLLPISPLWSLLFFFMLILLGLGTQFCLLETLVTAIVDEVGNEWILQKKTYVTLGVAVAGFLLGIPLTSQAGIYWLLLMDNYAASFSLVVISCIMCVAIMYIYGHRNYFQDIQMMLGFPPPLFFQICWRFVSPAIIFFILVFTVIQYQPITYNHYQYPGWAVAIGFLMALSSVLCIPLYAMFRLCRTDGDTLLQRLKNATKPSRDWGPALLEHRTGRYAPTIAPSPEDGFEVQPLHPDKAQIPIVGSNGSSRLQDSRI
Assay type: cell-based
Outline: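 T98G glioma cells expressing human GlyT1 were pretreated 10 min with compound in HEPES buffer pH 7.4 (0.2% BSA), then incubated with compound plus 250 nM final [3H]glycine for 15 min at room temperature. Intracellular radioactivity was counted after NaOH lysis; 10 μM ALX5407 defined non-specific uptake. IC50 came from 10^−9–10^−5 M curves.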
`CCn1cc(-c2cccc(C(NC(=O)c3ncc(Cl)cc3C(F)(F)F)C3(O)CCC(F)(F)CC3)c2)cn1` (stereo not shown) [Compound 206, 5-chloro-N-{(4,4-difluoro-1-hydroxycyclohexyl)[3-(1-ethyl-1H-pyrazol-4-yl)phenyl]methyl}-3-(trifluoromethyl)pyridine-2-carboxamide] showed an IC50 of 8700 nM. `CCn1cc(-c2cccc(C(NC(=O)c3cccc(OC)c3Cl)C3(O)CCC(F)(F)CC3)c2)cn1` (stereo not shown) [Compound 207, 2-chloro-N-{(4,4-difluoro-1-hydroxycyclohexyl)[3-(1-ethyl-1H-pyrazol-4-yl)phenyl]methyl}-3-methoxybenzamide] gave an IC50 of 8800 nM. Molecule `CCn1cc(-c2cccc(C(NC(=O)c3cccc(Cl)c3C(F)(F)F)C3(O)CCC(F)(F)CC3)c2)cn1` (stereo not shown) [Compound 208, 3-chloro-N-{(4,4-difluoro-1-hydroxycyclohexyl)[3-(1-ethyl-1H-pyrazol-4-yl)phenyl]methyl}-2-(trifluoromethyl)benzamide] has an IC50 of 1300 nM. Work on `CCn1cc(-c2cccc(C(NC(=O)c3cccc(F)c3Cl)C3(O)CCC(F)(F)CC3)c2)cn1` (stereo not shown) [Compound 209, 2-chloro-N-{(4,4-difluoro-1-hydroxycyclohexyl)[3-(1-ethyl-1H-pyrazol-4-yl)phenyl]methyl}-3-fluorobenzamide] yielded an IC50 of 1200 nM. Molecule `O=C(NC(c1cccc(Cl)c1)C1(O)CCCCC1)c1nccc(C(F)(F)F)c1Cl` (stereo not shown) [Compound 212, 3-chloro-N-[(3-chlorophenyl)(1-hydroxycyclohexyl)methyl]-4-(trifluoromethyl)pyridine-2-carboxamide] has an IC50 of 84 nM. For `O=C(N[C@@H](c1cccc(Cl)c1)[C@]1(O)CC[C@@H](F)CC1)c1cc(C(F)(F)F)ncc1Cl` [Compound 227, 5-chloro-N-[(S)-(3-chlorophenyl)(cis-4-fluoro-1-hydroxycyclohexyl)methyl]-2-(trifluoromethyl)pyridine-4-carboxamide], the IC50 was 510 nM. Work on `O=C(NC(c1cccc(Cl)n1)C1(O)CCCC1)c1nccc(C(F)(F)F)c1Cl` (stereo not shown) [Compound 383, 3-chloro-N-[(6-chloropyridin-2-yl)(1-hydroxycyclopentyl)methyl]-4-(trifluoromethyl)pyridine-2-carboxamide] yielded an IC50 of 21 nM.
